Test results from PubChem BioAssay AID330 (DTP/NCI, 2004).
Values joined by “and” are separate entries in the source; they are usually repeats but may differ in a detail not shown here. Equal values may be shown once. Inconclusive results and toxic doses are left out. Peptide text beside a SMILES is read from it. * marks the point of attachment. Cbz = O=C(OCc1ccccc1)*

Test system: P388 leukemia ip, CD2F1 mice, survival T/C
Experiment: NCI In Vivo Anticancer Drug Screen. Data for tumor model P388 Leukemia (intraperitoneal) in CD2F1 (CDF1) mice
Conditions: endpoint: median survival time, higher = longer survival
How it was run: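 Mice carrying the transplanted tumor received test compound or vehicle. Survival was recorded in each group, and the value is the treated-group measurement divided by that of the vehicle-treated control group.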

[1] = dose: 25.0 mg/kg/injection, schedule: Q01DX005 (ip), vehicle: saline
[2] = dose: 50.0 mg/kg/injection, schedule: Q01DX005 (ip), vehicle: saline
[3] = dose: 100.0 mg/kg/injection, schedule: Q01DX005 (ip), vehicle: saline
[4] = dose: 100.0 mg/kg/injection, schedule: Q01DX009 (ip), vehicle: saline with Tween-80
[5] = dose: 200.0 mg/kg/injection, schedule: Q01DX009 (ip), vehicle: saline with Tween-80
[6] = dose: 3.12 mg/kg/injection, schedule: Q01DX009 (ip), vehicle: saline
[7] = dose: 6.25 mg/kg/injection, schedule: Q01DX009 (ip), vehicle: saline
[8] = dose: 12.5 mg/kg/injection, schedule: Q01DX009 (ip), vehicle: saline

## OCC1(C2CCN(Cc3ccccc3)CC2)OCCO1
[1]
  T/C: 101 % of control
[2]
  T/C: 100 % of control
[3]
  T/C: 101 % of control

## CON1C(=O)c2ccccc2C1=O
[4]
  T/C: 99 % of control
[5]
  T/C: 106 % of control
dose: 400.0 mg/kg/injection, schedule: Q01DX009 (ip), vehicle: saline with Tween-80
  T/C: 106 % of control

## COc1cccc2c1C(=O)c1c(O)c3c(c(O)c1C2=O)CC(O)(C(C)=O)CC3OC1CC(OC(=O)c2ccc([N+](=O)[O-])cc2)C(OC(=O)c2ccc([N+](=O)[O-])cc2)C(C)O1 (stereo not given)
dose: 3.13 mg/kg/injection, schedule: Q04DX003 (ip), vehicle: distilled water + Tween-80
  T/C: 100 % of control
dose: 3.13 mg/kg/injection, schedule: Q04DX003 (ip), vehicle: saline with Tween-80
  T/C: 100 % of control and 101 % of control
dose: 6.25 mg/kg/injection, schedule: Q04DX003 (ip), vehicle: distilled water + Tween-80
  T/C: 108 % of control
dose: 6.25 mg/kg/injection, schedule: Q04DX003 (ip), vehicle: saline with Tween-80
  T/C: 104 % of control and 100 % of control
dose: 12.5 mg/kg/injection, schedule: Q04DX003 (ip), vehicle: distilled water + Tween-80
  T/C: 101 % of control
dose: 12.5 mg/kg/injection, schedule: Q04DX003 (ip), vehicle: saline with Tween-80
  T/C: 101 % of control and 95 % of control
dose: 25.0 mg/kg/injection, schedule: Q04DX003 (ip), vehicle: distilled water + Tween-80
  T/C: 95 % of control
dose: 25.0 mg/kg/injection, schedule: Q04DX003 (ip), vehicle: saline with Tween-80
  T/C: 101 % of control and 100 % of control
dose: 50.0 mg/kg/injection, schedule: Q04DX003 (ip), vehicle: distilled water + Tween-80
  T/C: 156 % of control
dose: 50.0 mg/kg/injection, schedule: Q04DX003 (ip), vehicle: saline with Tween-80
  T/C: 95 % of control and 100 % of control

## CCOC(=O)C1(C#N)C(c2ccccc2)C(OC)(OC)C1(OC)OC (stereo not given)
dose: 60.0 mg/kg/injection, schedule: Q01DX005 (ip), vehicle: Klucel (hydroxypropylcellulose) (HPC)
  T/C: 100 % of control
dose: 120.0 mg/kg/injection, schedule: Q01DX005 (ip), vehicle: Klucel (hydroxypropylcellulose) (HPC)
  T/C: 102 % of control
dose: 240.0 mg/kg/injection, schedule: Q01DX005 (ip), vehicle: Klucel (hydroxypropylcellulose) (HPC)
  T/C: 99 % of control

## CC(C)(C)c1cc2c(c(C(C)(C)OC(=O)c3ccccc3)c1)SOC2(C)C
dose: 12.5 mg/kg/injection, schedule: Q01DX005 (ip), vehicle: saline
  T/C: 101 % of control
dose: 12.5 mg/kg/injection, schedule: Q01DX005 (ip), vehicle: suspension in saline
  T/C: 102 % of control
[1]
  T/C: 91 % of control
dose: 25.0 mg/kg/injection, schedule: Q01DX005 (ip), vehicle: suspension in saline
  T/C: 100 % of control
dose: 50.0 mg/kg/injection, schedule: Q01DX005 (ip), vehicle: Klucel (hydroxypropylcellulose) (HPC)
  T/C: 100 % of control
[2]
  T/C: 100 % of control
dose: 50.0 mg/kg/injection, schedule: Q01DX005 (ip), vehicle: suspension in saline
  T/C: 106 % of control
dose: 100.0 mg/kg/injection, schedule: Q01DX005 (ip), vehicle: Klucel (hydroxypropylcellulose) (HPC)
  T/C: 104 % of control
[3]
  T/C: 98 % of control
dose: 100.0 mg/kg/injection, schedule: Q01DX005 (ip), vehicle: suspension in saline
  T/C: 102 % of control

## COC(=O)C1CCCN1C(=O)C(CCCCNC(=O)OCc1ccccc1)NC(=O)OCc1ccccc1 (stereo not given) (Cbz-Lys(Cbz)-Pro-OMe; configuration not given here)
[2]
  T/C: 106 % of control
[3]
  T/C: 103 % of control
dose: 200.0 mg/kg/injection, schedule: Q01DX005 (ip), vehicle: saline
  T/C: 105 % of control

## COc1ccc(C(=O)Cc2nc3nnc(NC(=O)Nc4ccc(Cl)cc4)n3nc2CC(=O)c2ccc(OC)cc2)cc1
dose: 60.0 mg/kg/injection, schedule: Q01DX005 (ip), vehicle: saline
  T/C: 97 % of control
dose: 120.0 mg/kg/injection, schedule: Q01DX005 (ip), vehicle: saline
  T/C: 94 % of control
dose: 240.0 mg/kg/injection, schedule: Q01DX005 (ip), vehicle: saline
  T/C: 95 % of control

## C/C=C1\CN2CCC34c5ccc(OC)cc5N(C)C3C2CC1C4C(=O)OC (stereo not given)
dose: 17.25 mg/kg/injection, schedule: Q01DX005 (ip), vehicle: acid diluted with saline
  T/C: 96 % of control
dose: 34.5 mg/kg/injection, schedule: Q01DX005 (ip), vehicle: acid diluted with saline
  T/C: 94 % of control

## CCN1C[C@@]2(C)CCC(OC)C34[C@H]2[C@@H](OC(C)=O)C2(OCO[C@]25C[C@@H](OC)C2C[C@@]3(O)[C@H]5C2O)[C@@H]14 (stereo not given in full)
dose: 4.0 mg/kg/injection, schedule: Q01DX005 (ip), vehicle: saline with Tween-80
  T/C: 100 % of control
dose: 8.0 mg/kg/injection, schedule: Q01DX005 (ip), vehicle: saline with Tween-80
  T/C: 99 % of control
dose: 16.0 mg/kg/injection, schedule: Q01DX005 (ip), vehicle: saline with Tween-80
  T/C: 97 % of control
dose: 32.0 mg/kg/injection, schedule: Q01DX005 (ip), vehicle: saline with Tween-80
  T/C: 107 % of control
dose: 64.0 mg/kg/injection, schedule: Q01DX005 (ip), vehicle: saline with Tween-80
  T/C: 108 % of control

## CN(C)c1ccc(/C=C\c2cccc[n+]2C)cc1
dose: 0.39 mg/kg/injection, schedule: Q01DX009 (ip), vehicle: saline
  T/C: 99 % of control and 100 % of control
dose: 0.78 mg/kg/injection, schedule: Q01DX009 (ip), vehicle: saline
  T/C: 100 % of control and 106 % of control
dose: 1.56 mg/kg/injection, schedule: Q01DX009 (ip), vehicle: saline
  T/C: 100 % of control and 105 % of control
[6]
  T/C: 109 % of control and 114 % of control

## CCC(C)C(N)C(=O)N1CCCC1C(=O)NC(C(=O)O)C(C)CC (stereo not given)
dose: 8.25 mg/kg/injection, schedule: Q01DX005 (ip), vehicle: saline
  T/C: 99 % of control
dose: 16.5 mg/kg/injection, schedule: Q01DX005 (ip), vehicle: saline
  T/C: 102 % of control
dose: 33.0 mg/kg/injection, schedule: Q01DX005 (ip), vehicle: saline
  T/C: 94 % of control
dose: 66.0 mg/kg/injection, schedule: Q01DX005 (ip), vehicle: saline
  T/C: 102 % of control

## C[N+](C)(C)C[c-]1[c-][c-][c-][c-]1.[Fe].[c-]1[c-][c-][cH-][c-]1
dose: 1.56 mg/kg/injection, schedule: Q01DX009 (ip), vehicle: saline with Tween-80
  T/C: 96 % of control
dose: 3.13 mg/kg/injection, schedule: Q01DX009 (ip), vehicle: saline with Tween-80
  T/C: 97 % of control
dose: 6.25 mg/kg/injection, schedule: Q01DX009 (ip), vehicle: saline with Tween-80
  T/C: 99 % of control
dose: 12.5 mg/kg/injection, schedule: Q01DX009 (ip), vehicle: saline with Tween-80
  T/C: 100 % of control

## CNC(=S)SSC(=S)NCCNC(=S)SSC(=S)NC
dose: 50.0 mg/kg/injection, schedule: Q01DX005 (ip), vehicle: saline with Tween-80
  T/C: 99 % of control
dose: 100.0 mg/kg/injection, schedule: Q01DX005 (ip), vehicle: saline with Tween-80
  T/C: 106 % of control
dose: 200.0 mg/kg/injection, schedule: Q01DX005 (ip), vehicle: saline with Tween-80
  T/C: 101 % of control

## CCCCC1C2C(S(=O)(=O)c3ccccc3)=NOC2C=CN1C(C)=O (stereo not given)
dose: 15.0 mg/kg/injection, schedule: Q01DX005 (ip), vehicle: saline with Tween-80
  T/C: 105 % of control and 109 % of control
dose: 30.0 mg/kg/injection, schedule: Q01DX005 (ip), vehicle: saline with Tween-80
  T/C: 102 % of control and 93 % of control and 98 % of control

## Clc1ccc2nc(C(Cl)(Cl)Cl)nc(NCCN3CCCCC3)c2c1
dose: 50.0 mg/kg/injection, schedule: Q01DX009 (ip), vehicle: saline with Tween-80
  T/C: 100 % of control
[4]
  T/C: 100 % of control
[5]
  T/C: 90 % of control

## NCc1ccc(Cl)c(Cl)c1
[7]
  T/C: 110 % of control and 116 % of control
[8]
  T/C: 104 % of control and 107 % of control
dose: 25.0 mg/kg/injection, schedule: Q01DX009 (ip), vehicle: saline
  T/C: 100 % of control and 103 % of control
dose: 50.0 mg/kg/injection, schedule: Q01DX009 (ip), vehicle: saline
  T/C: 101 % of control and 104 % of control
dose: 100.0 mg/kg/injection, schedule: Q01DX009 (ip), vehicle: saline
  T/C: 103 % of control and 109 % of control

## CCCCCCCCC[N+]1(CC)CCCCC1
[6]
  T/C: 121 % of control
[7]
  T/C: 121 % of control
[8]
  T/C: 86 % of control

## COC(=O)c1nc2nnc(NC(=O)Nc3ccc(Cl)cc3)n2c(-c2ccccc2)c1C
dose: 60.0 mg/kg/injection, schedule: Q01DX005 (ip), vehicle: saline with Tween-80
  T/C: 96 % of control
dose: 120.0 mg/kg/injection, schedule: Q01DX005 (ip), vehicle: saline with Tween-80
  T/C: 95 % of control

## CC1(C)N=C(N)N=C(N)N1NC(=O)c1cccc(Cl)c1
dose: 50.0 mg/kg/injection, schedule: Q04DX003 (ip), vehicle: saline
  T/C: 110 % of control
dose: 100.0 mg/kg/injection, schedule: Q04DX003 (ip), vehicle: saline
  T/C: 100 % of control
dose: 200.0 mg/kg/injection, schedule: Q04DX003 (ip), vehicle: saline
  T/C: 105 % of control
